We go through 3 molecules from ChEMBL document CHEMBL3046945, “Enantioselective Antifungal Activity of Pefurazoate against Pathogens of Rice Seed Diseases” (J Pestic Sci, 2001).

Experiment [1] relates to Fusarium fujikuroi. Kind of experiment: Inhibition of ergosterol biosynthesis in benzimidazole-sensitive Fusarium fujikuroi assessed as incorporation of [2-14C] acetate into total lipids at 7.35 ppm by autoradiography. The format is functional.
The test system of experiment [2] is Fusarium fujikuroi. Kind of experiment: Inhibition of ergosterol biosynthesis in benzimidazole-sensitive Fusarium fujikuroi assessed as incorporation of [2-14C] acetate into lipid fraction at 7.35 ppm by autoradiography. The format is functional.
The subject of experiment [3] is Fusarium fujikuroi. Kind of experiment: Inhibition of ergosterol biosynthesis in benzimidazole-sensitive Fusarium fujikuroi assessed as incorporation of [2-14C] acetate into ergosterol at 7.35 ppm by autoradiography. The format is functional.
Experiment [4] has as its system Fusarium fujikuroi. Kind of experiment: Inhibition of ergosterol biosynthesis in benzimidazole-sensitive Fusarium fujikuroi assessed as incorporation of [2-14C] acetate into 24-methylenedihydrolanosterol at 7.35 ppm by autoradiography. The format is functional.
For the next experiment, the system named is Pyricularia oryzae. Briefly: Antifungal activity against Magnaporthe oryzae assessed as diameter of mycelial colony after 3 to 4 days by agar dilution method. The class given is functional, organism-based.
The subject of the next experiment is Bipolaris oryzae. Briefly: Antifungal activity against Bipolaris oryzae assessed as diameter of mycelial colony after 3 to 4 days by agar dilution method. The class given is functional, organism-based.
Experiment [5] deals with Fusarium fujikuroi. Kind of experiment: Antifungal activity against benzimidazole-sensitive Fusarium fujikuroi assessed as diameter of mycelial colony after 3 to 4 days by agar dilution method. The format is functional, organism-based.
Experiment [6] deals with Fusarium fujikuroi. Kind of experiment: Inhibition of ergosterol biosynthesis in benzimidazole-sensitive Fusarium fujikuroi assessed as incorporation of [2-14C] acetate into total lipids at 0.24 ppm by autoradiography. The class given is functional.
For experiment [7], the system named is Fusarium fujikuroi. Kind of experiment: Inhibition of ergosterol biosynthesis in benzimidazole-sensitive Fusarium fujikuroi assessed as incorporation of [2-14C] acetate into lipid fraction at 0.24 ppm by autoradiography. The class given is functional.
For experiment [8], the system named is Fusarium fujikuroi. Briefly: Inhibition of ergosterol biosynthesis in benzimidazole-sensitive Fusarium fujikuroi assessed as incorporation of [2-14C] acetate into ergosterol at 0.24 ppm by autoradiography. The class given is functional.
Experiment [9] has as its system Fusarium fujikuroi. Kind of experiment: Inhibition of ergosterol biosynthesis in benzimidazole-sensitive Fusarium fujikuroi assessed as incorporation of [2-14C] acetate into 24-methylenedihydrolanosterol at 0.24 ppm by autoradiography. The class given is functional.

Take `C=CCCCOC(=O)[C@@H](CC)N(Cc1ccco1)C(=O)n1ccnc1` [(R)-(+)-pefurazoate]: the inhibition at 7.35 ppm stood at 1.6% with Fusarium fujikuroi [1], 84.5% with Fusarium fujikuroi [2], 1.3% with Fusarium fujikuroi [3] and 14.2% in the experiment with Fusarium fujikuroi [4]. Further, the EC50 amounted to 3.21 ppm in the experiment with Pyricularia oryzae, 3.89 ppm in the experiment on Bipolaris oryzae and 7.35 ppm in the experiment on Fusarium fujikuroi [5].
Turning to `C=CCCCOC(=O)C(CC)N(Cc1ccco1)C(=O)n1ccnc1` (racemic) [Pefurazoate], the EC50 with Pyricularia oryzae was 0.89 ppm; with Bipolaris oryzae, 0.84 ppm; in the experiment with Fusarium fujikuroi [5], 0.49 ppm.
Take `C=CCCCOC(=O)[C@H](CC)N(Cc1ccco1)C(=O)n1ccnc1` [(S)-(-)-pefurazoate]: the inhibition at 0.24 ppm was determined as 1.3% with Fusarium fujikuroi [6], 84.8% in the experiment on Fusarium fujikuroi [7], 1.3% in the experiment with Fusarium fujikuroi [8] and 13.9% in the experiment with Fusarium fujikuroi [9]. The EC50 in the experiment on Pyricularia oryzae came to 0.61 ppm; with Bipolaris oryzae it was 0.41 ppm; with Fusarium fujikuroi [5], 0.24 ppm.
